Source: paper PMC8776063, “Aurora Kinase A Is Involved in Controlling the Localization of Aquaporin-2 in Renal Principal Cells” (International Journal of Molecular Sciences, 2022)
Read-outs that look alike come from different tables or passages of the source.

Columns and labels:
[1] = target: T1, AURKC (Homo sapiens, UniProt Q9UQB9); assay: NanoBRET assay in HEK293T cells; type: cell-based; conditions: NanoBRET, Figure 6B, read-out: affinity to intracellular AURKC
T1 construct: full-length wild-type AURKA, AURKB, and AURKC were obtained as plasmids cloned in frame with a C-terminal NanoLuc-fusion; host or cells: HEK293T
T1 sequence (Q9UQB9 1-309): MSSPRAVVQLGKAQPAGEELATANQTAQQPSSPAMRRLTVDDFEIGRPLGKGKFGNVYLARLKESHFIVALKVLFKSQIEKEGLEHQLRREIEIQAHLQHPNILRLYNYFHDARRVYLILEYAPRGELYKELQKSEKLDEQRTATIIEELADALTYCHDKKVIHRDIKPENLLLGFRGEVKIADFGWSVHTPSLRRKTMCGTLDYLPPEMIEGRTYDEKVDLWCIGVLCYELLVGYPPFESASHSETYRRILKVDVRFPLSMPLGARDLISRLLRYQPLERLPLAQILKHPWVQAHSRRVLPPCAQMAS

[2] = system: MCD4 cells; assay: MTS assay (cell viability); type: cell-based, mouse; conditions: 30 µM, 10 µM or 1 µM, 1 h; compared to untreated cells
[3] = target: T2, AURKA (Homo sapiens, UniProt O14965); assay: NanoBRET assay in HEK293T cells; type: cell-based; conditions: NanoBRET
T2 construct: full-length wild-type AURKA, AURKB, and AURKC were obtained as plasmids cloned in frame with a C-terminal NanoLuc-fusion; host or cells: HEK293T
T2 sequence (O14965 1-403): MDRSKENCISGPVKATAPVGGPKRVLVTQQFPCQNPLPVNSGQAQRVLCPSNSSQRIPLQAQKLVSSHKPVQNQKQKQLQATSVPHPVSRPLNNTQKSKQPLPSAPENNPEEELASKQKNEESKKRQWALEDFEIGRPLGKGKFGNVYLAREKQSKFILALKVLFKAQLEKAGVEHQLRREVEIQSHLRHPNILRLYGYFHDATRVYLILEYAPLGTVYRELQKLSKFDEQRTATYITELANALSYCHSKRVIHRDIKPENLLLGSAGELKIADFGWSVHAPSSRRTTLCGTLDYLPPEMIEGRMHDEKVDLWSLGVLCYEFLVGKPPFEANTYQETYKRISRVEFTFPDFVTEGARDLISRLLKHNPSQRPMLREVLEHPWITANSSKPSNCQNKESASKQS

[4] = target: AURKB (Homo sapiens, UniProt Q96GD4); assay: NanoBRET assay in HEK293T cells; type: cell-based; set-up: full-length wild-type AURKA, AURKB, and AURKC were obtained as plasmids cloned in frame with a C-terminal NanoLuc-fusion; host or cells: HEK293T; conditions: NanoBRET
Sequence of AURKB (Q96GD4 whole entry, the tested form may be a part): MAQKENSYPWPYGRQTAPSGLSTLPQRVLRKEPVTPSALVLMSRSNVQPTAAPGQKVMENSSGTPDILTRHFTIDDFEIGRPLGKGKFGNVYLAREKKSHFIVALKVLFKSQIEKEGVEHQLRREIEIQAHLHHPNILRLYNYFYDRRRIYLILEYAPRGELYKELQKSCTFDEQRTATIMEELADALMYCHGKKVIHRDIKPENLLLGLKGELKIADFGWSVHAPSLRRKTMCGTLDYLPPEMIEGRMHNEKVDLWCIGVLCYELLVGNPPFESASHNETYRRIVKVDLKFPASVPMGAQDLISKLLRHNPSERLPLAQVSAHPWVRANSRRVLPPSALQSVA

[5] = system: M12 cells; set-up: method as in PMID 25090971; conditions: cited from earlier work
[6] = system: MCD4 cells; assay: AQP2 redistribution, immunofluorescence microscopy; conditions: compound 30 µM, 1 h (Aurora-A inhibitor I 1-30 µM), forskolin 30 µM, 30 min
[7] = system: primary IMCD cells; assay: AQP2 redistribution, immunofluorescence microscopy; conditions: compound 20 µM, 1 h (Aurora-A inhibitor I 1-30 µM), AVP 100 nM, 30 min
[8] = system: complex of AURKA and TPX2; set-up: method as in PMID 26732741; conditions: cited from earlier work
[9] = system: primary IMCD cells; assay: F-actin stress fiber staining (phalloidin); type: cell-based, rat; conditions: compound 20 µM, 1 h
[10] = system: CFL1 phosphorylation in MCD4 cells; assay: CFL1 phosphorylation, Western blotting; type: cell-based, mouse; conditions: compound 30 µM, 1 h
[11] = system: MCD4 cells; assay: F-actin stress fiber staining (phalloidin); type: cell-based, mouse; conditions: compound 30 µM, 1 h
[12] = target: T3, STK17A (Homo sapiens, UniProt Q9UEE5); assay: Thermal shift assay; type: binding; conditions: read-out: ΔTm STK17A
T3 construct: purchased in-house thermal shift (DSF) kinase panel (SGC Frankfurt); Promega NanoBRET for AURKA/B/C
T3 sequence (Q9UEE5 61-321): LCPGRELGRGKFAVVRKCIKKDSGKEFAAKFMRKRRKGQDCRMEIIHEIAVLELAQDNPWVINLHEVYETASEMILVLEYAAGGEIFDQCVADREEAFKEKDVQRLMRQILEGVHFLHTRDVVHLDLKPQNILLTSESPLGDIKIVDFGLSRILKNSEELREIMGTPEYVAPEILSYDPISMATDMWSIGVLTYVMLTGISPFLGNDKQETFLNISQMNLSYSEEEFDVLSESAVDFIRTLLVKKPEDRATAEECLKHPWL

[13] = target: T4, STK39 (Homo sapiens, UniProt Q9UEW8); assay: Thermal shift assay; type: binding; conditions: read-out: ΔTm STK39
T4 construct: purchased in-house thermal shift (DSF) kinase panel (SGC Frankfurt); Promega NanoBRET for AURKA/B/C

[14] = target: T5, CAMKK2 (Homo sapiens, UniProt Q96RR4); assay: Thermal shift assay; type: binding; conditions: read-out: ΔTm CAMKK2
T5 construct: purchased in-house thermal shift (DSF) kinase panel (SGC Frankfurt); Promega NanoBRET for AURKA/B/C
T5 sequence (Q96RR4 161-449): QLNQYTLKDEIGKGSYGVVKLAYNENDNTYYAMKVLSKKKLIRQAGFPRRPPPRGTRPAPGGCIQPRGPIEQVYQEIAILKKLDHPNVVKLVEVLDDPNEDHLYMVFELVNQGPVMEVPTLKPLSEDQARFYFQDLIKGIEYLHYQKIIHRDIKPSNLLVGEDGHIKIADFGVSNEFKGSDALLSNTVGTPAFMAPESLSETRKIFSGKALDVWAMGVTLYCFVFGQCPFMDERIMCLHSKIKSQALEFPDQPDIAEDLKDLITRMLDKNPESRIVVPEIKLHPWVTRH

[15] = target: T6, STK3 (Homo sapiens, UniProt Q13188); assay: Thermal shift assay; type: binding; conditions: read-out: ΔTm STK3
T6 construct: purchased in-house thermal shift (DSF) kinase panel (SGC Frankfurt); Promega NanoBRET for AURKA/B/C
T6 sequence (Q13188 16-313): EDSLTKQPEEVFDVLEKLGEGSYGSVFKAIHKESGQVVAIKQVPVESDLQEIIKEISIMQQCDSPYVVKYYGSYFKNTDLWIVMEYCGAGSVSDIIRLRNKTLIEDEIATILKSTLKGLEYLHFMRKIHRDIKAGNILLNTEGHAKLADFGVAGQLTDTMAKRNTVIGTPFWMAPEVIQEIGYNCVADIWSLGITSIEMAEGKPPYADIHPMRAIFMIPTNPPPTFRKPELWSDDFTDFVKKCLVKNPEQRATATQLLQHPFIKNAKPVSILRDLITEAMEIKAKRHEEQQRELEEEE

[16] = n = 2, mean, Figure 6B, read-out: affinity to intracellular AURKA
[17] = HEK293T cells overexpressing the kinase, Table 2, read-out: AURKB IC50
[18] = HEK293T cells overexpressing the kinase, Table 2, read-out: AURKA IC50

COCCNC(=O)Cc1ccc(Nc2ncc(F)c(Nc3ccc(C(=O)Nc4ccccc4Cl)cc3)n2)cc1 [ERJ2-05]
IC50 ([1]; n = 2, mean): 12.9 µM | viability of MCD4 cells [2]: partly increased | IC50 [3, 16]: 0.24 µM | IC50 ([4]; n = 2, mean, Figure 6B, read-out: affinity to intracellular AURKB): 16.8 µM

COc1cc(Nc2ncc3c(n2)-c2ccc(Cl)cc2C(c2c(F)cccc2OC)=NC3)ccc1C(=O)O [Alisertib, reference compound]
phosphorylation of CFL1 [5]: increased | inhibition of the forskolin-induced redistribution of AQP2 to the plasma membrane [6]: significantly inhibited | inhibition of the AVP-induced redistribution of AQP2 to the plasma membrane [7]: significantly inhibited | decrease of affinity for AURKA in the presence of TPX2 [8]: 5.8 fold | effect on actin stress fibers [9]: promoted or maintained the formation of actin stress fibers | CFL1 phosphorylation in resting cells ([10]; no forskolin): not reduced | effect on actin stress fibers [11]: promoted or maintained the formation of actin stress fibers

O=C(O)Cc1ccc(Nc2ncc(F)c(Nc3ccc(C(=O)Nc4ccccc4Cl)cc3)n2)cc1 [ERJ2-02]
IC50 ([1]; n = 2, bounds): > 50 µM | IC50 [3, 16]: 1.33 µM | IC50 [4, 17]: > 50 µM

O=C(Nc1ccccc1Cl)c1ccc(Nc2nc(Nc3ccc(CC(=O)N4CCOCC4)cc3)ncc2F)cc1 [ERJ2-03]
inhibition of the forskolin-induced redistribution of AQP2 to the plasma membrane [6]: not being an inhibitor | IC50 ([1]; n = 2, bounds): > 50 µM | viability of MCD4 cells [2]: reduced by 10 or 30 µM | IC50 [3, 18]: 1.08 µM | IC50 [4, 17]: > 50 µM

CCN(CCO)CCCOc1ccc2c(Nc3cc(CC(=O)Nc4cccc(F)c4)n[nH]3)ncnc2c1 [Barasertib-HQPA, reference compound]
inhibition of the forskolin-induced redistribution of AQP2 to the plasma membrane [6]: did not | inhibition of the AVP-induced redistribution of AQP2 to the plasma membrane [7]: No inhibitory effect | effect on actin stress fibers [9]: resembled those of the control cells | CFL1 phosphorylation ([10]; absence and presence of forskolin): no effect | effect on actin stress fibers [11]: resembled those of the control cells

O=C(O)Cc1ccc(Nc2ncc(F)c(Nc3ccc(C(=O)Nc4ccccc4)cc3)n2)cc1 [ERJ2-10]
IC50 ([1]; n = 2, bounds): > 50 µM | IC50 [3, 18]: 22.8 µM | IC50 [4, 17]: > 50 µM

O=C(O)c1ccc(Nc2ncc(F)c(Nc3ccc(C(=O)O)cc3)n2)cc1 [ERJ2-09]
IC50 [4, 17]: > 50 µM

CCN1CCN(C(=O)Cc2ccc(Nc3ncc(F)c(Nc4ccc(C(=O)N5CCN(CC)CC5)cc4)n3)cc2)CC1 [ERJ2-13]
IC50 ([1]; n = 2, bounds): > 50 µM | IC50 [3, 18]: 37.3 µM | IC50 [4, 17]: > 50 µM

CN[C@@H]1C[C@H]2O[C@@](C)([C@@H]1OC)n1c3ccccc3c3c4c(c5c6ccccc6n2c5c31)C(=O)NC4 [Staurosporine, reference compound]
ΔTm at 10 µM [12]: 12.9 °C | ΔTm at 10 µM [13]: 9.9 °C | ΔTm at 10 µM [14]: 24.2 °C | ΔTm at 10 µM [15]: 13.7 °C

O=C(Cc1ccc(Nc2ncc(F)c(Nc3ccc(C(=O)Nc4ccccc4Cl)cc3)n2)cc1)NCCO [ERJ2-08]
IC50 ([1]; n = 2, mean): 17 µM | viability of MCD4 cells [2]: partly increased | IC50 [3, 18]: 0.237 µM | IC50 [4, 17]: 16.1 µM

CCN1CCN(C(=O)Cc2ccc(Nc3ncc(F)c(Nc4ccc(C(=O)NCCN5CCCC5)cc4)n3)cc2)CC1 [ERJ2-16]
IC50 ([1]; n = 2, bounds): > 50 µM | IC50 [3, 18]: > 50 µM | IC50 [4, 17]: > 50 µM
